Results reported in patent US5792780A, “Azole compounds, their production and use” (Takeda Chemical Industries, Ltd., priority 1993, dated 1998).

What was measured:
Candida albicans TA = assay: protective effect against experimental infection in mice (survival rate 7 days after infection); type: in vivo, Crj:CDF1 mice; conditions: po, 168 h, Table 7, P.O. once immediately after infection, 0.2% CMC, survival 7 days after infection
Procedure: (§1) Test Method: Five-week-old Crj:CDF1 mice were inoculated with the minimum lethal dose of Candida albicans TA intravenously. The test compound was suspended in a solution of 0.2% or 0.5% sodium carboxymethylcellulose (CMC). The suspension was administered orally once immediately after infection. The activity was expressed in terms of ED50 values calculated by the Reed and Muench method from the survival rate 7 days after infection.
as §1, with “of” for “of 0.2% or”

[1] = system: Cryptococcus neoformans IFO 0410; assay: growth inhibition zone, paper disc agar diffusion; type: cell-based; conditions: IFO0410, 48 h, Medium A, 1000 μg/ml, 28° C., two days, read-out: Diameter of growth inhibition zone
Procedure: (§2) Evaluation of the antifungal activities of the compound of the present invention was conducted by the following method: a sheet of filter paper disc (manufactured by Toyo Seisakusho, 8 mm in diameter) soaked in a 1000 μg/ml solution of a compound of the present invention in methanol was placed on an agar plate containing various fungi, which was incubated at 28° C. for two days, and the diameter of the growth inhibition zone around the filter paper disc was measured. The following culture media were used:
(§3) A: yeast nitrogen base agar medium (pH 7.0)
(§4) B: peptone-yeast extract-glucose agar medium (pH 7.0)

[2] = system: Trichophyton rubrum IFO 5467; assay: growth inhibition zone, paper disc agar diffusion; type: cell-based; conditions: IFO5467, 48 h, Medium B, 1000 μg/ml, 28° C., two days, read-out: Diameter of growth inhibition zone
Procedure: as §2, §3, §4

[3] = system: Aspergillus niger IFO 4066; assay: growth inhibition zone, paper disc agar diffusion; type: cell-based; conditions: IFO4066, 48 h, Medium A, 1000 μg/ml, 28° C., two days, read-out: Diameter of growth inhibition zone
Procedure: as §2, §3, §4

[4] = system: Candida albicans IFO 0583; assay: growth inhibition zone, paper disc agar diffusion; type: cell-based; conditions: IFO0583, 48 h, Table 5, Medium A, 1000 μg/ml, 28° C., two days, read-out: Diameter of growth inhibition zone
Procedure: as §2, §3, §4

[5] = system: Microsporum gypseum IFO 6076; assay: growth inhibition zone, paper disc agar diffusion; type: cell-based; conditions: Nannizzia gypsea, IFO6076, 48 h, Medium B, 1000 μg/ml, 28° C., two days, read-out: Diameter of growth inhibition zone
Procedure: as §2, §3, §4

[6] = system: Trichophyton mentagrophytes IFO 7522; assay: growth inhibition zone, paper disc agar diffusion; type: cell-based; conditions: IFO7522, 48 h, Medium B, 1000 μg/ml, 28° C., two days, read-out: Diameter of growth inhibition zone
Procedure: as §2, §3, §4

Candida utilis IFO 0619 = assay: growth inhibition zone, paper disc agar diffusion; type: cell-based; conditions: Williopsis jadinii, IFO0619, 48 h, Medium A, 1000 μg/ml, 28° C., two days, read-out: Diameter of growth inhibition zone
Procedure: as §2, §3, §4

[7] = system: Aspergillus fumigatus IFO 6344; assay: growth inhibition zone, paper disc agar diffusion; type: cell-based; conditions: IFO6344, 48 h, Medium A, 1000 μg/ml, 28° C., two days, read-out: Diameter of growth inhibition zone
Procedure: as §2, §3, §4

Row | Compound | ED50 (Candida albicans TA) [mg/kg] | zone of inhibition at 1000 µg/mL [1] [mm] | zone of inhibition at 1000 µg/mL [2] [mm] | zone of inhibition at 1000 µg/mL [3] [mm] | zone of inhibition at 1000 µg/mL [4] [mm] | zone of inhibition at 1000 µg/mL [5] [mm] | zone of inhibition at 1000 µg/mL [6] [mm] | zone of inhibition at 1000 µg/mL (Candida utilis IFO 0619) [mm] | zone of inhibition at 1000 µg/mL [7] [mm]
1 | C[C@@H](N1CCN(c2ccc(OC(F)(F)F)cc2)C1=O)[C@](O)(Cn1cncn1)c1ccc(F)cc1F [Compound 1, 1-[(1R,2R)-2-(2,4-difluorophenyl)-2-hydroxy-1-methyl-3-(1H-1,2,4-triazol-1-yl)propyl]-3-(4-trifluoromethoxyphenyl)-2-imidazolidinone] | 1.4 | 27 | 47 | 24 | 36 | 49 | 48 | 25 | 31
2 | C[C@@H](N1CCN(c2ccc(F)cc2F)C1=O)[C@](O)(Cn1cncn1)c1ccc(F)cc1F [Compound 2, 1-[(1R,2R)-2-(2,4-difluorophenyl)-2-hydroxy-1-methyl-3-(1H-1,2,4-triazol-1-yl)propyl]-3-(2,4-difluorophenyl)-2-imidazolidinone] | – | 31 | 50 | 27 | 45 | 41 | 40 | 29 | 30
3 | C[C@@H](N1CCN(c2ccc(C(F)(F)F)cc2)C1=O)[C@](O)(Cn1cncn1)c1ccc(F)cc1F [Compound 4, 1-[(1R,2R)-2-(2,4-difluorophenyl)-2-hydroxy-1-methyl-3-(1H-1,2,4-triazol-1-yl)propyl]-3-(4-trifluoromethylphenyl)-2-imidazolidinone] | 0.65 | 29 | 43 | 26 | 41 | 42 | 39 | 31 | 34
